Results on three compounds are retold here after patent EP0673649A1, “Pharmaceutical compositions for the prolonged release of trimetazidine after oral administration” (ADIR ET COMPAGNIE, priority 1994, dated 1995).

The conditions of data set [1]: plasticizer added at 20 % to Eudragit RS® film; measured with chlorhydrate de phénylpropanolamine; cited from earlier work.
Data set [2] is described as follows: in vitro dissolution / release of trimetazidine dihydrochloride from reservoir forms. The format is physicochemical. Particulars: release of trimetazidine dihydrochloride through a film containing this plasticizer (figure 1).
Data set [3] is described as follows: solubility in water of trimetazidine dihydrochloride. It is filed as physicochemical. As to conditions: read-out: solubilité du dichlorhydrate dans l'eau. On the procedure: Le poids moléculaire de la trimétazidine sous forme de base est de 266,33 et la solubilité du dichlorhydrate dans l'eau supérieure à 1000 mg/ml. De ce fait, il était très difficile d'obtenir des comprimés matriciels contrôlant la libération du principe actif sur plus de 16 heures. Ce problème a été résolu par l'utilisation du système réservoir décrit dans la présente invention.

For data set [4] the following is noted: immediate-release oral forms; background statement; cited from earlier work.

As for `CCOC(=O)c1ccccc1C(=O)OCC` [Diéthylphtalate], in data set [1], the Perméabilité is listed as 14.8 mg.cm⁻².h⁻¹.

For `CC(=O)OCC(COC(C)=O)OC(C)=O` [Triacétine], in data set [2], the temps de latence result is recorded as “très long qui peut atteindre quatre heures”. Further, in data set [1], the Perméabilité was 6.2 mg.cm⁻².h⁻¹. For the compound `COc1ccc(CN2CCNCC2)c(OC)c1OC` [dichlorhydrate de trimétazidine, 1-(2,3,4-triméthoxybenzyl)pipérazine], the solubility in data set [3] was over 1000 mg/mL. In addition, the demi-vie plasmatique in data set [4] was under 6 heures.
